Experimental data from patent publication US12357556B2, “Composition for improving hair health” (K18, Inc., priority 2018, dated 2025).
Residues, ends and D or L forms follow the SMILES beside them.

Molecular target: T1, natural hair keratin (Hair Keratin KRTHB1 Basic, SEQ ID NO: 7) (Homo sapiens, UniProt Q14533)
T1 sequence (Q14533 304-505): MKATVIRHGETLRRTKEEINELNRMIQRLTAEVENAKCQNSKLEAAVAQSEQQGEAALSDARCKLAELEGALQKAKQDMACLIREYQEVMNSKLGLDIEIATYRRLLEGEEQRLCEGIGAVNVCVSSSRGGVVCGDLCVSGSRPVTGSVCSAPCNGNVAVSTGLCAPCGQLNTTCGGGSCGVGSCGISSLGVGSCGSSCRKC
Assay: SPRi binding affinity of peptides to keratin printed on a sensor chip
Settings: for kon / koff: SPRi, 4° C., kinetic analysis with BIAevaluation 4.1; for kon: read-out: Ka (association rate constant); for koff: read-out: Kd (dissociation rate constant); for Affinity ranking: rank by KD, the lower the KD the more affinity to hair keratin
Experimental: Affinity of Aquis peptides with natural hair keratin were tested. A third peptide was also tested with the sequence GGVCGPSPPCITT (SEQ ID NO: 6) known as KP developed by Khairpep as a control. KP has been shown in previous patent and publications to penetrate the hair shaft, bind to keratin and improve hair mechanical properties. Various concentrations of Keratin dissolved in water were manually printed onto the bare gold coated (thickness 47 nm) PlexArray Nanocapture Sensor Chip (Plexera Bioscience, Seattle, WA, US) at 40% humidity. Each concentration was printed in replicate, and each spot contained 0.2 microliters of […] solution. The chip was incubated in 80% humidity at 4° C. for overnight, and rinsed with 10×PBST for 10 min, 1×PBST for 10 min, and deionized water twice for 10 min. The chip was then blocked with 5% (w/v) non-fat milk in water overnight, and washed with 10×PBST for 10 min, 1×PBST for 10 min, and deionized water twice for 10 min before being dried under a stream of nitrogen prior to use. SPRi measurements were performed with PlexAray HT (Plexera Bioscience, Seattle, WA, US). Collimated light (660 nm) passes through the coupling prism, reflects off the SPR-active gold surface, and is received by the CCD camera. Buffers and samples were injected by a non-pulsatile piston pump into the 30 uL flowcell that was mounted on the coupling prim. Each measurement cycle contained four steps: washing with PBST running buffer at a constant rate of 2 uL/s to obtain a stable baseline, sample injection at 5 uL/s for binding, surface washing with PBST at 2 uL/s for 300 s, and regeneration with 0.5% (v/v) H3PO4 at 2 uL/s for 300 s. All the measurements were performed at 4° C. The signal changes after binding and washing (in AU) are recorded as the assay value. Selected protein-grafted regions in the SPR images were analyzed, and the average reflectivity variations of the chosen areas were plotted as a function of time. Real-time binding signals were recorded and analyzed by Data Analysis Module (DAM, Plexera Bioscience, Seattle, WA, US). Kinetic analysis was performed using BIAevaluation 4.1 software (Biacore, Inc.).
FIG. 1 to 3 show the binding affinity to keratin for each peptide tested. The lower the KD value is, the more affinity the peptide has to hair keratin.

kon [M⁻¹ s⁻¹] | koff [s⁻¹] | affinity to hair keratin compared with the other peptides (comparison of Figures 1-3, in words) | Affinity ranking | SMILES
1310 | 0.000478 | has the most affinity to hair keratin | 1 | C[C@@H](O)[C@H](NC(=O)[C@H](CO)NC(=O)[C@H](CS)NC(=O)[C@H](CO)NC(=O)[C@@H]1CCCN1C(=O)[C@H](Cc1ccccc1)NC(=O)CNC(=O)[C@H](CS)NC(=O)[C@@H](N)Cc1ccccc1)C(=O)N[C@@H](CO)C(=O)NCC(=O)O [Aquis 1, FCGFPSCSTSG] (H-FCGFPSCSTSG-OH; N-terminus and C-terminus assumed)
8240 | 0.0206 | – | 3 | CC(C)C[C@H](NC(=O)[C@H](CCC(N)=O)NC(=O)[C@H](CS)NC(=O)[C@H](CS)NC(=O)[C@H](CO)NC(=O)[C@@H]1CCCN1C(=O)[C@@H]1CCCN1C(=O)[C@@H](NC(=O)[C@@H](N)CS)[C@@H](C)O)C(=O)N[C@@H](Cc1c[nH]cn1)C(=O)N[C@@H](Cc1c[nH]cn1)C(=O)N[C@@H](C)C(=O)O [Aquis 2, CTPPSCCQLHHA] (H-CTPPSCCQLHHA-OH; N-terminus and C-terminus assumed)
8500 | 0.000692 | – | 2 | CC[C@H](C)[C@H](NC(=O)[C@H](CS)NC(=O)[C@@H]1CCCN1C(=O)[C@@H]1CCCN1C(=O)[C@H](CO)NC(=O)[C@@H]1CCCN1C(=O)CNC(=O)[C@H](CS)NC(=O)[C@@H](NC(=O)CNC(=O)CN)C(C)C)C(=O)N[C@H](C(=O)N[C@H](C(=O)O)[C@@H](C)O)[C@@H](C)O [KP, GGVCGPSPPCITT, reference compound] (H-GGVCGPSPPCITT-OH; N-terminus and C-terminus assumed)
